We go through one compound from patent US20030119910A1, “Therapeutic or preventing agent for diseases caused by decrease in the expression level of klotho protein” (Kyowa Hakko Kogyo Co., Ltd., priority 2001, published 2003).

Type in all cases: in vivo, mouse
Assay [1] concerns male homozygous klotho mutant mice. Description: Male klotho mutant homozygotes raised on feed: indices of premature aging-like syndrome (blood sugar, serum inorganic phosphorus, body weight). The following applies: ornithine in feed. From the text:
(§1) Mice carrying a klotho mutation were bred by mating a pair of heterozygous klotho mutant mice provided by Tumor Biology, Pathology, Kyoto University Graduate School of Medicine. Klotho mutant homozygotes, klotho mutant heterozygotes and wild-type mice were confirmed by PCR. Male klotho mutant homozygotes were raised on the feed prepared in Example 1 or the feed prepared in Comparative Example 1 and were intermittently weighed (number of animals: 4/group). The mice were given the powdery feed through a commercially available powder feeder (KN-675 No. 4, Natsume Seisakusho) and filtered running water, both ad libitum. The mice were raised in an SPF (specific pathogen-free) room kept at a temperature of 24±1° C. and a humidity of 55±10%. The expression level of Klotho protein was expressed as relative values based on the average value of the group raised on the feed of Comparative Example 1 up to the age of 6 weeks as 100.

The test system of another assay is Klotho protein. The assay can be described thus: Expression level of Klotho protein in the kidneys of male klotho mutant homozygotes raised on feed. The following applies: male homozygous klotho mutant mice, ornithine in feed.
Text: The determination of Klotho protein can be carried out by methods such as immune precipitation, Western blotting and enzyme-linked immunosorbent assay (ELISA) using an anti-Klotho protein antibody, and the determination of mRNA for the klotho gene can be carried out by methods such as Northern blot hybridization and reverse transcription-polymerase chain reaction (RT-PCR). The determination methods and methods for obtaining tissue samples, klotho gene, Klotho protein, probe DNA, primers, antibodies, etc. to be used in the determination are described in WO 98/29544.
as §1, with “The mice were raised in an SPF (specific pathogen-free) room kept at a temperature of 24±1° C. and a humidity of 55±10%.” left out

The test system of assay [2] is female klotho mutant homozygotes. Description: Body weight of female klotho mutant homozygotes raised on feed. As to conditions: female homozygous individuals, ornithine in feed.
Text: as §1, with “The mice were raised in an SPF (specific pathogen-free) room kept at a temperature of 24±1° C. and a humidity of 55±10%.” left out
Female klotho mutant homozygotes obtained by the same method as in Example 3 were raised on the feed of Example 1 or the feed of Comparative Example 1 in the same manner as in Example 3 up to the age of 8 weeks, and their body weight was measured. […]
Female klotho mutant homozygotes obtained by the same method as in Example 3 were raised on the feed of Example 2 or the feed of Comparative Example 2 in the same manner as in Example 3 up to the age of 6 weeks, and their body weight was measured. […]

The test system is the same in assay [3]. The assay can be described thus: Life span of female klotho mutant homozygotes raised on feed. As to conditions: ornithine in feed. An excerpt: Female klotho mutant homozygotes obtained by the same method as in Example 3 were raised on the feed of Example 1, the feed of Comparative Example 1, the feed of Example 2 or the feed of Comparative Example 2 (number of animals: 4/group) to observe their life span. The number of mice that died before reaching the age of 11 weeks was 0 and 2 in the groups fed on the feed of Example 1 and the feed of Comparative Example 1, respectively, and was 1 and 2 in the groups fed on the feed of Example 2 and the feed of Comparative Example 2, respectively.

Assay [4] has as its system female homozygous klotho mutant mice. The assay can be described thus: Breeding results of female homozygous klotho mutant mice raised on feed. As to conditions: ornithine in feed. From the text: Male homozygous klotho mutant mice were raised on the feed of Comparative Example 3 and female homozygous klotho mutant mice were raised on the feed of Example 7 or the feed of Comparative Example 2, both to the age of 8 weeks. These male and female mice were mated and their breeding results were compared between the female group fed on the feed of Example 7 and that fed on the feed of Comparative Example 2. During the mating period, the males were transferred into the cages of females and so fed on the same feeds as the respective females.

`NCCC[C@H](N)C(=O)O` [ornithine]: in assay [1], the “Effect on premature aging-like syndrome” value is recorded as “inhibitory effects on premature aging-like syndrome”. Also, the “Effect on expression level of kidney Klotho protein” value in the assay with Klotho protein is given as “effective in raising the expression level of kidney Klotho protein”. Moreover, in assay [2], the “Effect on body weight” value is reported as “weight-increasing effect”. The “Effect on life span” value in assay [3] is “effective in prolonging life span”. For the same compound, in assay [4], the “Effect on breeding result” value is “improved the breeding result”.
